Test results: patent publication US10947271B2, “Antibacterial agents” (THE UNIVERSITY OF QUEENSLAND, priority 2014, dated 2021)

How the values were obtained:
Assay type in all cases: cell-based
Details in all cases: 24 h incubation, visual reading
[1] = test system: Enterococcus faecium MDR Van A ATCC 51559; experiment: MIC assay, E. faecium MDR Van A ATCC 51559
Procedure: (§1) Antimicrobial activity of compounds was tested against a number of bacterial strains, including Staphylococcus aureus (MRSA ATCC 43300, GISA NRS17, VISA NRS1, MRSA clinical isolate, daptomycin resistant clinical isolate), Streptococcus pneumoniae (MDR ATCC 700677), Enterococcus faecalis (VanA clinical isolate) and Enterococcus faecium (MDR Van A ATCC 51559).
(§2) All compounds were prepared to 160 μg/ml solution in water from a stock solution of 1 mM concentration.
(§3) The compounds, along with standard antibiotics were serially diluted twofold across the wells of 96-well non-binding surface plates (NBS, Corning). Standards ranged from 64 μg/ml to 0.03 μg/ml and compounds from 8 μg/ml to 0.003 μg/ml with final volumes of 50 μL per well. Gram positive bacteria were cultured in Muller Hinton broth (MHB) (Bacto laboratories, Cat. no. 211443) at 37° C. overnight. A sample of each culture was then diluted 40-fold in fresh MHB broth and incubated at 37° C. for 2-3 hrs. The resultant mid-log phase cultures were diluted to the final concentration of 5×10e5 CFU/mL, then 50 μL was added to each well of the compound-containing 96-well plates. All the plates were covered and incubated at 37° C. for 24 h. MICs were the lowest concentration showing no visible growth.
(§4) MICs were determined visually at 24 hr incubation and the MIC was defined as the lowest concentration with which no growth was visible after incubation. Both MIC and MBC were determined by visual inspection only.

[2] = test system: Staphylococcus aureus MRSA ATCC 43300; experiment: MIC assay, S. aureus MRSA ATCC 43300
Procedure: as §1, §2, §3, §4

[3] = test system: Streptococcus pneumoniae MDR ATCC 700677; experiment: MIC assay, S. pneumoniae MDR ATCC 700677
Procedure: as §1, §2, §3, §4

SMILES	Minimum Inhibitory Concentration (MIC) E. faecium ATCC51559 [1]	Minimum Inhibitory Concentration (MIC) Staph. aureus ATCC43300 [2]	Minimum Inhibitory Concentration (MIC) S. pneumoniae ATCC 700677 [3]
CCCCCCCCCCC(=O)NC(CCCCN(C)C)C(=O)NCCCNC(=O)C1NC(=O)C2NC(=O)C(NC(=O)C3NC(=O)C(CC(N)=O)NC(=O)C(NC(=O)C(CC(C)C)NC)C(O)c4ccc(c(Cl)c4)Oc4cc3cc(c4OC3OC(CO)C(O)C(O)C3OC3CC(C)(N)C(O)C(C)O3)Oc3ccc(cc3Cl)C2O)c2ccc(O)c(c2)-c2c(O)cc(O)cc21 (stereo not drawn) [MCC_007340]	xx (xx = 1-4)	xxxxx (xxxxx = <0.01)	xxxx (xxxx = 0.01-<0.1)
CNC(=O)C(CCCCNC(=O)C1NC(=O)C2NC(=O)C(NC(=O)C3NC(=O)C(CC(N)=O)NC(=O)C(NC(=O)C(CC(C)C)NC)C(O)c4ccc(c(Cl)c4)Oc4cc3cc(c4OC3OC(CO)C(O)C(O)C3OC3CC(C)(N)C(O)C(C)O3)Oc3ccc(cc3Cl)C2O)c2ccc(O)c(c2)-c2c(O)cc(O)cc21)NC(=O)C(CCCCN)NC(=O)C(CCCCN)NC(=O)C(CCCCN)NC(=O)C(CCCCNC(=O)c1ccc(Oc2ccccc2)cc1)NC(=O)c1ccc(Oc2ccccc2)cc1 (stereo not drawn) [MCC_000316]	xxxx (xxxx = 0.01-<0.1)	xxxxx (xxxxx = <0.01)	xxxxx (xxxxx = <0.01)
CCCCCCCCCC(=O)NC(CCCCN)C(=O)NC(CCCCN)C(=O)NC(CCCCNC(=O)C1NC(=O)C2NC(=O)C(NC(=O)C3NC(=O)C(CC(N)=O)NC(=O)C(NC(=O)C(CC(C)C)NC)C(O)c4ccc(c(Cl)c4)Oc4cc3cc(c4OC3OC(CO)C(O)C(O)C3OC3CC(C)(N)C(O)C(C)O3)Oc3ccc(cc3Cl)C2O)c2ccc(O)c(c2)-c2c(O)cc(O)cc21)C(=O)NC (stereo not drawn) [MCC_000492]	x (x = >4)	xxxxx (xxxxx = <0.01)	xxxxxx
CN[C@H](CC(C)C)C(=O)N[C@H]1C(=O)N[C@@H](CC(N)=O)C(=O)N[C@H]2C(=O)N[C@H]3C(=O)N[C@H](C(=O)N[C@H](C(=O)NCCCC[C@H](NC(=O)[C@H](CCCCN)NC(=O)[C@H](CCCCN)NC(=O)CCCOc4ccccc4)C(=O)O)c4cc(O)cc(O)c4-c4cc3ccc4O)[C@H](O)c3ccc(c(Cl)c3)Oc3cc2cc(c3O[C@@H]2O[C@H](CO)[C@@H](O)[C@H](O)[C@H]2O[C@H]2C[C@](C)(N)[C@H](O)[C@H](C)O2)Oc2ccc(cc2Cl)[C@H]1O [MCC_005501]	x (x = >4)	xx (xx = 1-4)	xx (xx = 1-4)
CCCCCCCCCCC(=O)NCC(=O)N[C@@H](CCCCN)C(=O)N[C@@H](CCCCN)C(=O)N[C@@H](CCCCN)C(=O)N[C@@H](CCCCNC(=O)[C@H]1NC(=O)[C@H]2NC(=O)[C@H](NC(=O)[C@@H]3NC(=O)[C@H](CC(N)=O)NC(=O)[C@H](NC(=O)[C@@H](CC(C)C)NC)[C@H](O)c4ccc(c(Cl)c4)Oc4cc3cc(c4O[C@@H]3O[C@H](CO)[C@@H](O)[C@H](O)[C@H]3O[C@H]3C[C@](C)(N)[C@H](O)[C@H](C)O3)Oc3ccc(cc3Cl)[C@H]2O)c2ccc(O)c(c2)-c2c(O)cc(O)cc21)C(=O)O [MCC_000346]	x (x = >4)	xxxx (xxxx = 0.01-<0.1)	xxxx (xxxx = 0.01-<0.1)
CCCCCCCCC(=O)N[C@@H](CCCCN(C)C)C(=O)N[C@@H](CCCCNC(=O)[C@H]1NC(=O)[C@H]2NC(=O)[C@H](NC(=O)[C@@H]3NC(=O)[C@H](CC(N)=O)NC(=O)[C@H](NC(=O)[C@@H](CC(C)C)NC)[C@H](O)c4ccc(c(Cl)c4)Oc4cc3cc(c4O[C@@H]3O[C@H](CO)[C@@H](O)[C@H](O)[C@H]3O[C@H]3C[C@](C)(N)[C@H](O)[C@H](C)O3)Oc3ccc(cc3Cl)[C@H]2O)c2ccc(O)c(c2)-c2c(O)cc(O)cc21)C(=O)O [MCC_007386]	x (x = >4)	xx (xx = 1-4)	xx (xx = 1-4)
CCCCCCCCCC(=O)N[C@@H](CCCCN(CC)CC)C(=O)N[C@@H](CCCCNC(=O)[C@H]1NC(=O)[C@H]2NC(=O)[C@H](NC(=O)[C@@H]3NC(=O)[C@H](CC(N)=O)NC(=O)[C@H](NC(=O)[C@@H](CC(C)C)NC)[C@H](O)c4ccc(c(Cl)c4)Oc4cc3cc(c4O[C@@H]3O[C@H](CO)[C@@H](O)[C@H](O)[C@H]3O[C@H]3C[C@](C)(N)[C@H](O)[C@H](C)O3)Oc3ccc(cc3Cl)[C@H]2O)c2ccc(O)c(c2)-c2c(O)cc(O)cc21)C(=O)O [MCC_007330]	x (x = >4)	xxx (xxx = 0.1-<1)	xxx (xxx = 0.1-<1)
CCCCCCCCCCC(=O)N[C@@H](CCCCN)C(=O)N[C@@H](CCCCN)C(=O)N[C@@H](CCCCN)C(=O)N[C@@H](CCCCNC(=O)[C@H]1NC(=O)[C@H]2NC(=O)[C@H](NC(=O)[C@@H]3NC(=O)[C@H](CC(N)=O)NC(=O)[C@H](NC(=O)[C@@H](CC(C)C)NC)[C@H](O)c4ccc(c(Cl)c4)Oc4cc3cc(c4O[C@@H]3O[C@H](CO)[C@@H](O)[C@H](O)[C@H]3O[C@H]3C[C@](C)(N)[C@H](O)[C@H](C)O3)Oc3ccc(cc3Cl)[C@H]2O)c2ccc(O)c(c2)-c2c(O)cc(O)cc21)C(=O)NC [MCC_000309]	xxx (xxx = 0.1-<1)	xxxxx (xxxxx = <0.01)	xxxxx (xxxxx = <0.01)
CNC(CC(C)C)C(=O)NC1C(=O)NC(CC(N)=O)C(=O)NC2C(=O)NC3C(=O)NC(C(=O)NC(C(=O)NCCCNC(=O)C(CCCCN)NC(=O)c4ccc(C(F)(F)F)cc4)c4cc(O)cc(O)c4-c4cc3ccc4O)C(O)c3ccc(c(Cl)c3)Oc3cc2cc(c3OC2OC(CO)C(O)C(O)C2OC2CC(C)(N)C(O)C(C)O2)Oc2ccc(cc2Cl)C1O (stereo not drawn) [MCC_007408]	x (x = >4)	xxxx (xxxx = 0.01-<0.1)	xxx (xxx = 0.1-<1)
CCCCCCCCCCCCCCC(=O)NC(CCCCN)C(=O)NC(CCCCN)C(=O)NC(CCCCNC(=O)C1NC(=O)C2NC(=O)C(NC(=O)C3NC(=O)C(CC(N)=O)NC(=O)C(NC(=O)C(CC(C)C)NC)C(O)c4ccc(c(Cl)c4)Oc4cc3cc(c4OC3OC(CO)C(O)C(O)C3OC3CC(C)(N)C(O)C(C)O3)Oc3ccc(cc3Cl)C2O)c2ccc(O)c(c2)-c2c(O)cc(O)cc21)C(=O)NC (stereo not drawn) [MCC_000495]	xxx (xxx = 0.1-<1)	xxxx (xxxx = 0.01-<0.1)	xxxxx (xxxxx = <0.01)
CCCCCCC[C@H](O)CC(=O)N[C@@H](CCCCN)C(=O)N[C@@H](CCCCN)C(=O)N[C@@H](CCCCNC(=O)[C@H]1NC(=O)[C@H]2NC(=O)[C@H](NC(=O)[C@@H]3NC(=O)[C@H](CC(N)=O)NC(=O)[C@H](NC(=O)[C@@H](CC(C)C)NC)[C@H](O)c4ccc(c(Cl)c4)Oc4cc3cc(c4O[C@@H]3O[C@H](CO)[C@@H](O)[C@H](O)[C@H]3O[C@H]3C[C@](C)(N)[C@H](O)[C@H](C)O3)Oc3ccc(cc3Cl)[C@H]2O)c2ccc(O)c(c2)-c2c(O)cc(O)cc21)C(=O)O [MCC_005506]	x (x = >4)	xxx (xxx = 0.1-<1)	xxx (xxx = 0.1-<1)
CCCCCCCCCCC(=O)NC(CCCNC(=N)N)C(=O)NCCCNC(=O)C1NC(=O)C2NC(=O)C(NC(=O)C3NC(=O)C(CC(N)=O)NC(=O)C(NC(=O)C(CC(C)C)NC)C(O)c4ccc(c(Cl)c4)Oc4cc3cc(c4OC3OC(CO)C(O)C(O)C3OC3CC(C)(N)C(O)C(C)O3)Oc3ccc(cc3Cl)C2O)c2ccc(O)c(c2)-c2c(O)cc(O)cc21 (stereo not drawn) [MCC_007337]	xx (xx = 1-4)	xxxxx (xxxxx = <0.01)	xxxxx (xxxxx = <0.01)
CCC(=O)N[C@@H](CCCCN)C(=O)N[C@@H](CCCCN)C(=O)N[C@@H](CCCCNC(=O)[C@H]1NC(=O)[C@H]2NC(=O)[C@H](NC(=O)[C@@H]3NC(=O)[C@H](CC(N)=O)NC(=O)[C@H](NC(=O)[C@@H](CC(C)C)NC)[C@H](O)c4ccc(c(Cl)c4)Oc4cc3cc(c4O[C@@H]3O[C@H](CO)[C@@H](O)[C@H](O)[C@H]3O[C@H]3C[C@](C)(N)[C@H](O)[C@H](C)O3)Oc3ccc(cc3Cl)[C@H]2O)c2ccc(O)c(c2)-c2c(O)cc(O)cc21)C(=O)O [MCC_005388]	x (x = >4)	xx (xx = 1-4)	x (x = >4)
